US5977063A, “Alkylated hexapeptides” (Eli Lilly and Company, priority 1998, dated 1999)

Key:
Format in all cases: cell-based
[1] = tested on: Enterococcus faecium and faecalis (RESISTANT); conditions: geometric mean of 4-6 isolates
Procedure: (§1) The antibacterial efficacy of the present compounds is illustrated by Table II. The minimal inhibitory concentrations (MICs) were determined using a standard broth micro-dilution assay.

[2] = tested on: Enterococcus faecium and faecalis (SENSITIVE); experiment: MIC, standard broth micro-dilution assay, SENSITIVE enterococci; set-up: unit not given here; conditions: geometric mean of 4-6 isolates
Procedure: as §1

[3] = tested on: Staphylococcus aureus 446; experiment: MIC, standard broth micro-dilution assay, SA 446; set-up: unit not given here
Procedure: as §1

[4] = tested on: Staphylococcus aureus 489; experiment: MIC, standard broth micro-dilution assay, SA 489; set-up: unit not given here
Procedure: as §1

[5] = tested on: Staphylococcus aureus 447; experiment: MIC, standard broth micro-dilution assay, SA 447; set-up: unit not given here
Procedure: as §1

[6] = tested on: Staphylococcus haemolyticus 105; experiment: MIC, standard broth micro-dilution assay, SH 105; set-up: unit not given here
Procedure: as §1

[7] = tested on: Staphylococcus haemolyticus 415; experiment: MIC, standard broth micro-dilution assay, SH 415; set-up: unit not given here
Procedure: as §1

[8] = tested on: Staphylococcus epidermidis 270; experiment: MIC, standard broth micro-dilution assay, SE 270; set-up: unit not given here
Procedure: as §1

[9] = tested on: Streptococcus pyogenes C203; experiment: MIC, standard broth micro-dilution assay, SPY C203; set-up: unit not given here
Procedure: as §1

[10] = tested on: Streptococcus pneumoniae P1; experiment: MIC, standard broth micro-dilution assay, SPN P1; set-up: unit not given here
Procedure: as §1

| SMILES | Minimal Inhibitory Concentration (MIC) RESISTANT [1] | Minimal Inhibitory Concentration (MIC) SENSITIVE [2] | Minimal Inhibitory Concentration (MIC) SA 446 [3] | Minimal Inhibitory Concentration (MIC) SA 489 [4] | Minimal Inhibitory Concentration (MIC) SA 447 [5] | Minimal Inhibitory Concentration (MIC) SH 105 [6] | Minimal Inhibitory Concentration (MIC) SH 415 [7] | Minimal Inhibitory Concentration (MIC) SE 270 [8] | Minimal Inhibitory Concentration (MIC) SPY C203 [9] | Minimal Inhibitory Concentration (MIC) SPN P1 [10] |
| --- | --- | --- | --- | --- | --- | --- | --- | --- | --- | --- |
| CCCCCCN[C@H]1C(=O)N[C@@H](CC(N)=O)C(=O)N[C@H]2C(=O)N[C@H]3C(=O)N[C@H](C(=O)N[C@H](C(=O)O)c4cc(O)cc(O)c4-c4cc3ccc4O)[C@H](O[C@H]3C[C@](C)(N)[C@@H](O)[C@H](C)O3)c3ccc(c(Cl)c3)Oc3cc2cc(c3O[C@@H]2O[C@H](CO)[C@@H](O)[C@H](O)[C@H]2O[C@H]2C[C@](C)(N)[C@@H](O)[C@H](C)O2)Oc2ccc(cc2Cl)[C@H]1O [Example 10, N^1 -n-HEXYLDESLEUCYL-A82846B] | > 128 | > 128 | 32 | 16 | 32 | 64 | 64 | 32 | 16 | 32 |
| C[C@@H]1O[C@@H](O[C@@H]2c3ccc(c(Cl)c3)Oc3cc4cc(c3O[C@@H]3O[C@H](CO)[C@@H](O)[C@H](O)[C@H]3O[C@H]3C[C@](C)(NCc5ccc(-c6ccccc6)cc5)[C@@H](O)[C@H](C)O3)Oc3ccc(cc3Cl)[C@@H](O)[C@@H](NCc3ccc(-c5cc(C(F)(F)F)cc(C(F)(F)F)c5)cc3)C(=O)N[C@@H](CC(N)=O)C(=O)N[C@H]4C(=O)N[C@H]3C(=O)N[C@@H]2C(=O)N[C@H](C(=O)O)c2cc(O)cc(O)c2-c2cc3ccc2O)C[C@](C)(N)[C@H]1O [Example 26, N^1 -(p-(3,5-BIS-(TRIFLUOROMETHYL)-PHENYL)BENZYL)-N^DISACC -(p-PHENYLBENZYL)-DESLEUCYL-A82846B] | 5.7 | 6.1 | 8 | 4 | 4 | 2 | 4 | 4 | 0.25 | ≤ .06 |
| C[C@@H]1O[C@@H](O[C@@H]2c3ccc(c(Cl)c3)Oc3cc4cc(c3O[C@@H]3O[C@H](CO)[C@@H](O)[C@H](O)[C@H]3O[C@H]3C[C@](C)(NCCCCCCCCCCc5ccccc5)[C@@H](O)[C@H](C)O3)Oc3ccc(cc3Cl)[C@@H](O)[C@@H](NCCCCCCCCCCc3ccccc3)C(=O)N[C@@H](CC(N)=O)C(=O)N[C@H]4C(=O)N[C@H]3C(=O)N[C@@H]2C(=O)N[C@H](C(=O)O)c2cc(O)cc(O)c2-c2cc3ccc2O)C[C@](C)(N)[C@H]1O [Example 16, N^1,N^DISACC -BIS(10 PHENYL-n-DECYL)-DESLEUCYL-A82846B] | > 128 | > 11 | > 64 | 64 | > 64 | > 64 | > 64 | > 64 | 8 | 16 |
| CC1OC(OC2c3ccc(c(Cl)c3)Oc3cc4cc(c3OC3OC(CO)C(O)C(O)C3OC3CC(C)(N)C(O)C(C)O3)Oc3ccc(cc3Cl)C(O)C(NCCCCCCCCCCCCc3ccccc3)C(=O)NC(CC(N)=O)C(=O)NC4C(=O)NC3C(=O)NC2C(=O)NC(C(=O)O)c2cc(O)cc(O)c2-c2cc3ccc2O)CC(C)(N)C1O (stereo not shown) [Example 1, N^1 -(12-PHENYL-n-DODECYL)DESLEUCYL-A82846B] | 13 | 9.2 | 8 | 2 | 2 | 4 | 8 | 4 | 0.125 | – |
| C[C@@H]1O[C@@H](O[C@H]2[C@H](Oc3c4cc5cc3Oc3ccc(cc3Cl)[C@@H](O[C@H]3C[C@](C)(N)[C@@H](O)[C@H](C)O3)[C@@H]3NC(=O)[C@H](NC(=O)[C@@H]5NC(=O)[C@H](CC(N)=O)NC(=O)[C@H](NCc5ccccc5)[C@H](O)c5ccc(c(Cl)c5)O4)c4ccc(O)c(c4)-c4c(O)cc(O)cc4[C@@H](C(=O)O)NC3=O)O[C@H](CO)[C@@H](O)[C@@H]2O)C[C@](C)(N)[C@H]1O [Example 12, N^1 -BENZYLDESLEUCYL-A82846B] | > 128 | 128 | > 64 | 64 | > 64 | > 64 | > 64 | > 64 | 2 | 2 |
| C[C@@H]1O[C@@H](O[C@H]2[C@H](Oc3c4cc5cc3Oc3ccc(cc3Cl)[C@@H](O[C@H]3C[C@](C)(N)[C@@H](O)[C@H](C)O3)[C@@H]3NC(=O)[C@H](NC(=O)[C@@H]5NC(=O)[C@H](CC(N)=O)NC(=O)[C@H](NCc5ccc(-c6cc(C(F)(F)F)cc(C(F)(F)F)c6)cc5)[C@H](O)c5ccc(c(Cl)c5)O4)c4ccc(O)c(c4)-c4c(O)cc(O)cc4[C@@H](C(=O)O)NC3=O)O[C@H](CO)[C@@H](O)[C@@H]2O)C[C@](C)(N)[C@H]1O [Example 22, N^1 -(p-(3,5-BIS-(TRIFLUOROMETHYL)-PHENYL)BENZYL)-DESLEUCYL-A82846B] | 9.5 | 4.6 | 2 | 1 | 2 | 1 | 2 | 2 | ≤ .06 | ≤ .06 |
| C[C@@H]1O[C@@H](O[C@H]2[C@H](Oc3c4cc5cc3Oc3ccc(cc3Cl)[C@@H](O[C@H]3C[C@](C)(N)[C@@H](O)[C@H](C)O3)[C@@H]3NC(=O)[C@H](NC(=O)[C@@H]5NC(=O)[C@H](CC(N)=O)NC(=O)[C@H](NCCCCCCc5ccccc5)[C@H](O)c5ccc(c(Cl)c5)O4)c4ccc(O)c(c4)-c4c(O)cc(O)cc4[C@@H](C(=O)O)NC3=O)O[C@H](CO)[C@@H](O)[C@@H]2O)C[C@](C)(N)[C@H]1O [Example 14, N^1 -(6-PHENYL-n-HEXYL)DESLEUCYL-A82846B] | > 50 | 37 | 16 | 8 | 8 | 8 | 8 | 8 | ≤ .06 | ≤ .06 |
| C[C@@H]1O[C@@H](O[C@@H]2c3ccc(c(Cl)c3)Oc3cc4cc(c3O[C@@H]3O[C@H](CO)[C@@H](O)[C@H](O)[C@H]3O[C@H]3C[C@](C)(NCc5ccc(-c6ccccc6)cc5)[C@@H](O)[C@H](C)O3)Oc3ccc(cc3Cl)[C@@H](O)[C@@H](NCCCCCCCCCCCCc3ccccc3)C(=O)N[C@@H](CC(N)=O)C(=O)N[C@H]4C(=O)N[C@H]3C(=O)N[C@@H]2C(=O)N[C@H](C(=O)O)c2cc(O)cc(O)c2-c2cc3ccc2O)C[C@](C)(N)[C@H]1O [Example 2, N^1 -(12-PHENYL-n-DODECYL)-N^DISACC -(p-PHENYLBENZYL)-DESLEUCYL-A82846B] | 45 | 24 | 32 | 64 | > 64 | > 64 | > 64 | 32 | 4 | ≤ .06 |
